What was measured:
Type in all cases: biochemical, human
PCT [1] = assay: Luciferase dual-antibody complementary activation assay for PCT detection, clone supernatants, retest with CTZ-h (Example 1); conditions: for Signal-to-noise ratio: RLU antigen+/RLU antigen-, MBP-PCT 3.3 ng/ml, CTZ-h; for PCT+: luminescence signal value with MBP-PCT 3.3 ng/ml, large subunit-rSCFV5 50 nM, supernatant; for PCT+ / PCT-: retest CTZ-h 25 µM, read after 60 s; for PCT-: luminescence signal value, background control PBSAD without PCT
Procedure: In order to improve the signal-to-noise ratio and complementary activity of the luciferase dual-antibody complementary activation assay, a series of complementary luciferase small subunits were prepared in this example. Large subunit-rSCFV5 fusion protein (SEQ ID NO: 87) was kept unchanged, and the small subunit sequence of the rSCFV18-small subunit P114 fusion protein (SEQ ID NO: 88) was modified by semi-randomization to prepare rSCFV18-small subunit mutant fusion proteins. Based on the sequence of small subunit P114, and with reference to the 3D structure of complementary luciferase, computer-aided sequence design was employed to generate a library with a theoretical diversity of 2.49*10^6. Primers were designed for PCR amplification using the plasmid pComb3x of rSCFV18-small subunit P114 fusion protein as a template. Subsequently, an expression vector library was constructed by means of restriction digestion and ligation (SfiI, NheI), and a semi-random amino acid mutation library was introduced into the small subunit position and transformed into HB2151 competent cells, yielding a library capacity of 7.6*10^9. The 100 plates were spread, and 9,500 single clones were picked and inoculated into 600 µL of 2YTA medium, followed by incubation at 37°C with shaking at 250 rpm for 2 h. When the bacterial density reached approximately OD600 = 0.6~1.0, IPTG was then added to a final concentration of 1 mM, and the culture was further incubated at 30°C with shaking at 250 rpm for 20 h. The next day, the bacteria were collected by centrifugation at 4°C, 4,500g for 10min. The supernatant was discarded, and the precipitate was resuspended with 200µl of PBS containing polymyxin B at a final concentration of 20,000 u/ml. The suspension was incubated at room temperature with shaking at 100rpm for 1h, and then centrifuged at 4500g for 10min, and the supernatant was used for the test.
Test Methods: • (1) The concentration of large subunit-rSCFV5 fusion protein was diluted to 50 nM, and 15 µl was added per well; • (2) MBP-PCT fusion protein was diluted to 3.3 ng/ml with PBSAD, and 15 µl was added per well. The background control was PBSAD, and 10 µl was added per well; • (3) HB2151 strain containing expression plasmids with different small subunit were induced by 1 mM of IPTG at 30°C overnight, then treated with polymyxin B for 1.5 h, and centrifuged to collect the supernatant, and 2.5 µl supernatant was added per well; • (4) The above three components were slightly mixed, incubated at 37°C for 7 min, and Obuffer 6.37-3 containing Furimazine at a concentration of 25 µM was added, and after 80 s, the luminescence signal value was detected using a bioluminescence detector; and • (5) Clones with RLU higher than 10,000 and a signal-to-noise ratio (RLU antigen+/RLU antigen-) higher than that of the rSCFV18-small subunit P114 fusion protein were selected for retesting. The substrate was replaced with CTZ-h for retesting. Obuffer 6.37-3 containing CTZ-h at a concentration of 25 µM was added, and after 60 s, the luminescence signal value was detected using a bioluminescence detector.

PCT [2] = assay: Sensitivity and linear range for PCT detection of preferred small subunits (Example 5); conditions: for luminescence value: normalized; for Signal-to-noise ratio at 1000 pg/ml: large subunit 8.3~25 nM, small subunit fusion 30~180 nM, CTZ-h 15 µM
Procedure: Detection Methods: • (1) The concentration of large subunit-rSCFV5 fusion protein was diluted with PBSA to 8.3~25nM, and 15µl was added per well; • (2) MBP-PCT fusion proteins were diluted with PBSAD in a downward gradient starting from 2.5 µg/ml, and 10 µl was added per well; • (3) The rSCFV18-small subunit mutant-containing fusion protein was diluted with PBSA to 30~180 nM, and 15 µl was added per well; • (4) The above three components were slightly mixed, incubated at 37°C for 15 min, and Obuffer 6.37-3 containing CTZ-h at a concentration of 15 µM was added, and the luminescence signal value was immediately detected using a bioluminescence detector (the luminescence value was normalized);

PCT [3] = assay: Second library screening for PCT detection, clone supernatants, retest with CTZ-h (Example 4); conditions: for Signal-to-noise ratio: PCT+/PCT-, MBP-PCT 3.3 ng/ml, CTZ-h; for PCT+: luminescence signal value with MBP-PCT 3.3 ng/ml; for PCT+ / PCT-: large subunit-rSCFV5 12.5 nM, CTZ-h 25 µM, 60 s; for PCT-: luminescence signal value, PBSAD control without PCT
Procedure: In order to further improve the signal-to-noise ratio and complementary activity of the luciferase dual-antibody complementary activation assay, novel complementary luciferase small subunits were prepared in this example. Large subunit-rSCFV5 fusion protein (SEQ ID NO: 87) was kept unchanged, and the small subunit sequence of the rSCFV18-RB073 fusion protein (SEQ ID NO: 89) were modified by semi-randomization. The theoretical diversity was 6912, the library capacity was 10^6, and 3,000 single clones were picked. The method of protein induction and expression was the same as that in Example 2.
Detection Methods: • (1) The concentration of large subunit-rSCFV5 fusion protein was diluted to 12.5 nM, and 15 µl was added per well; • (2) MBP-PCT fusion protein was diluted to 3.3 ng/ml with PBSAD, and 10 µl was added per well; • (3) HB2151 strain containing plasmids with different small subunit sequences were induced by IPTG at 30°C overnight, then treated with polymyxin B for 1.5h, and centrifuged to collect the supernatant, and 2.5µl supernatant was added per well; • (4) The above three components were slightly mixed, incubated at 37°C for 7 min, and Obuffer 6.37-3 containing Furimazine at a concentration of 25 µM was added, and after 3 min, the luminescence signal value was detected using a bioluminescence detector; and • (5) Clones with RLU higher than 10,000 were picked. The substrate was replaced with CTZ-h substrate for retesting (Obuffer 6.37-3 containing CTZ-h at a concentration of 25 µM was added, and after 60 s, the luminescence signal value was detected using a bioluminescence detector), and a PBSAD control was added to test the signal-to-noise ratio.

VEGYRLFEKVW [RB172]
Signal-to-noise ratio (PCT [1]): 36.9
PCT+ (PCT [1]): 41446
PCT- (PCT [1]): 1094

VEGYRLFERIW [RB113]
Signal-to-noise ratio (PCT [1]): 31.3
PCT+ (PCT [1]): 57092
PCT- (PCT [1]): 1769

VEGYRLFERKS [RB097]
Signal-to-noise ratio (PCT [1]): 21
PCT+ (PCT [1]): 95553
PCT- (PCT [1]): 4346

VEGYRLFERKW [RB276]
Signal-to-noise ratio (PCT [1]): 35
PCT+ (PCT [1]): 44654
PCT- (PCT [1]): 1242

VEGYRLFNRKW [RB223]
Signal-to-noise ratio (PCT [1]): 34.7
PCT+ (PCT [1]): 39231
PCT- (PCT [1]): 1099

VEGYRLFNRVG [RB122]
Signal-to-noise ratio (PCT [1]): 20.2
PCT+ (PCT [1]): 55355
PCT- (PCT [1]): 2605

VEGYRLFDRKS [RC-218]
luminescence value (PCT [2]; PCT 0.0, background): 5000
luminescence value (PCT [2]; PCT 1 (pg/ml)): 4937
luminescence value (PCT [2]; PCT 3 (pg/ml)): 4976
luminescence value (PCT [2]; PCT 10 (pg/ml)): 5164
luminescence value (PCT [2]; PCT 30 (pg/ml)): 5701
luminescence value (PCT [2]; PCT 100 (pg/ml)): 7494
luminescence value (PCT [2]; PCT 1000 (pg/ml)): 31585
luminescence value (PCT [2]; PCT 10000 (pg/ml)): 266213
luminescence value (PCT [2]; PCT 100000 (pg/ml)): 1757745
luminescence value (PCT [2]; PCT 250000 (pg/ml)): 2436323
Signal-to-noise ratio at 1000 pg/ml (PCT [2]): 6.3
Signal-to-noise ratio (PCT [3]): 7.9
PCT+ (PCT [3]): 7242
PCT- (PCT [3]): 921

VEGYRLFDRKL [RB212]
Signal-to-noise ratio (PCT [1]): 33.6
PCT+ (PCT [1]): 33103
PCT- (PCT [1]): 957

VEGYRLFNRVS [RB027]
Signal-to-noise ratio (PCT [1]): 22.6
PCT+ (PCT [1]): 101765
PCT- (PCT [1]): 4316

VEGYRLFDRVW [RB128]
Signal-to-noise ratio (PCT [1]): 38.8
PCT+ (PCT [1]): 26168
PCT- (PCT [1]): 658

VDGYRLFEKVS [RC-263]
luminescence value (PCT [2]; PCT 0.0, background): 5000
luminescence value (PCT [2]; PCT 1 (pg/ml)): 5132
luminescence value (PCT [2]; PCT 3 (pg/ml)): 5234
luminescence value (PCT [2]; PCT 10 (pg/ml)): 5192
luminescence value (PCT [2]; PCT 30 (pg/ml)): 5647
luminescence value (PCT [2]; PCT 100 (pg/ml)): 7134
luminescence value (PCT [2]; PCT 1000 (pg/ml)): 28776
luminescence value (PCT [2]; PCT 10000 (pg/ml)): 240937
luminescence value (PCT [2]; PCT 100000 (pg/ml)): 1556694
luminescence value (PCT [2]; PCT 250000 (pg/ml)): 2230650
Signal-to-noise ratio at 1000 pg/ml (PCT [2]): 5.8
Signal-to-noise ratio (PCT [3]): 7.0
PCT+ (PCT [3]): 4768
PCT- (PCT [3]): 685

VEGYRIFEKKW [RC-286]
luminescence value (PCT [2]; PCT 0.0, background): 5000
luminescence value (PCT [2]; PCT 1 (pg/ml)): 4670
luminescence value (PCT [2]; PCT 3 (pg/ml)): 4645
luminescence value (PCT [2]; PCT 10 (pg/ml)): 4833
luminescence value (PCT [2]; PCT 30 (pg/ml)): 5406
luminescence value (PCT [2]; PCT 100 (pg/ml)): 6696
luminescence value (PCT [2]; PCT 1000 (pg/ml)): 27596
luminescence value (PCT [2]; PCT 10000 (pg/ml)): 236023
luminescence value (PCT [2]; PCT 100000 (pg/ml)): 1443932
luminescence value (PCT [2]; PCT 250000 (pg/ml)): 2007480
Signal-to-noise ratio at 1000 pg/ml (PCT [2]): 5.5
Signal-to-noise ratio (PCT [3]): 11.4
PCT+ (PCT [3]): 5003
PCT- (PCT [3]): 438

VEGYRLFNKKS [RB054]
Signal-to-noise ratio (PCT [1]): 25.7
PCT+ (PCT [1]): 92160
PCT- (PCT [1]): 3449

VSGYRLFDKKW [RC-099]
luminescence value (PCT [2]; PCT 0.0, background): 5000
luminescence value (PCT [2]; PCT 1 (pg/ml)): 5106
luminescence value (PCT [2]; PCT 3 (pg/ml)): 5166
luminescence value (PCT [2]; PCT 10 (pg/ml)): 5453
luminescence value (PCT [2]; PCT 30 (pg/ml)): 5950
luminescence value (PCT [2]; PCT 100 (pg/ml)): 7470
luminescence value (PCT [2]; PCT 1000 (pg/ml)): 28688
luminescence value (PCT [2]; PCT 10000 (pg/ml)): 243815
luminescence value (PCT [2]; PCT 100000 (pg/ml)): 1744023
luminescence value (PCT [2]; PCT 250000 (pg/ml)): 2942238
Signal-to-noise ratio at 1000 pg/ml (PCT [2]): 5.7
Signal-to-noise ratio (PCT [3]): 7.0
PCT+ (PCT [3]): 8149
PCT- (PCT [3]): 1164

VSGYRLFDKVS [RC-178]
luminescence value (PCT [2]; PCT 0.0, background): 5000
luminescence value (PCT [2]; PCT 1 (pg/ml)): 4911
luminescence value (PCT [2]; PCT 3 (pg/ml)): 5152
luminescence value (PCT [2]; PCT 10 (pg/ml)): 5180
luminescence value (PCT [2]; PCT 30 (pg/ml)): 6047
luminescence value (PCT [2]; PCT 100 (pg/ml)): 8378
luminescence value (PCT [2]; PCT 1000 (pg/ml)): 41922
luminescence value (PCT [2]; PCT 10000 (pg/ml)): 350855
luminescence value (PCT [2]; PCT 100000 (pg/ml)): 1664322
luminescence value (PCT [2]; PCT 250000 (pg/ml)): 1858964
Signal-to-noise ratio at 1000 pg/ml (PCT [2]): 8.4
Signal-to-noise ratio (PCT [3]): 9.6
PCT+ (PCT [3]): 5708
PCT- (PCT [3]): 593

VEGYRLFDKVS [RC-215]
luminescence value (PCT [2]; PCT 0.0, background): 5000
luminescence value (PCT [2]; PCT 1 (pg/ml)): 5095
luminescence value (PCT [2]; PCT 3 (pg/ml)): 5206
luminescence value (PCT [2]; PCT 10 (pg/ml)): 5458
luminescence value (PCT [2]; PCT 30 (pg/ml)): 6156
luminescence value (PCT [2]; PCT 100 (pg/ml)): 7892
luminescence value (PCT [2]; PCT 1000 (pg/ml)): 35231
luminescence value (PCT [2]; PCT 10000 (pg/ml)): 296125
luminescence value (PCT [2]; PCT 100000 (pg/ml)): 1967363
luminescence value (PCT [2]; PCT 250000 (pg/ml)): 2983773
Signal-to-noise ratio at 1000 pg/ml (PCT [2]): 7.0
Signal-to-noise ratio (PCT [3]): 11.2
PCT+ (PCT [3]): 5972
PCT- (PCT [3]): 531

From patent EP4700040A1, “PEPTIDE AND LUMINESCENT COMPLEX CONTAINING SAME” (Shenzhen Loggene Life Science & Technology Co., Ltd., priority 2023, dated 2024)
